The nature of data set [1]: pH dependent aqueous solubility of Compound A. The class given is physicochemical. The procedure: The material was analyzed for hydrate formation.

Bounds are passed on as bounds.

Experimental for physchem: The pKa of a compound is determined experimentally or it can be calculated, such as with ACDLABS8.0 software.

As to `Cc1c(Cl)cccc1S(=O)(=O)Nc1nc(CCN2CCOCC2=O)cs1` [Compound A, 3-chloro-2-methyl-N-(4-(2-(3-oxo-4-morpholinyl)ethyl)-1,3-thiazol-2-yl)benzenesulfonamide], in data set [1] (solubility versus pH), the “pH dependent solubility (FIG. 9)” value is recorded as “solubility increases at a pH consistent with the approximate pKa value”. Moreover, the solubility (in general, the dissolved amount per volume that the medium holds) in data set [1] (water, pH 4, aqueous buffer) was less than 15 µg/mL. Besides, the pKa (in general, the pH at which an ionisable group is half protonated) in “physchem” is approximately 6.6.

(Values after patent publication US20070110802A1, “Wet granulation process” (priority 2005, published 2007).)
